# Earlier results as cited in patent publication US20110015154A1, “SUPPORTING ACETYLCHOLINE FUNCTION” (priority 2009, published 2011).
# Legend:
# [1] = supplementation
# [2] = test system: M2 receptors; conditions: adult rats
# [3] = test system: M1 receptors; conditions: adult rats
# [4] = in vivo
# [5] = test system: nuclear factor-kappa B (NFκB); conditions: after 14 days of administration
# [6] = test system: cells; conditions: against hydrogen peroxide, beta-amyloid protein, glutamate, ischemia, staurosporine-induced cytotoxicity, and apoptosis
structure (smiles),measurement,setting,value
CC(=O)O[C@H](CC(=O)[O-])C[N+](C)(C)C [acetyl-L-carnitine],pain in patients with diabetic peripheral neuropathy,[1],reduce pain
"C[N+](C)(C)CCOP(=O)([O-])OC[C@H](O)CO [α-GPC, Alpha-glycerylphosphorylcholine]",effect on M2 receptors,[2],no effect
same,effect on M1 receptors,[3],countered the loss of M1 receptors
same,blood-brain barrier passage,[4],can cross the blood-brain barrier
same,metabolism,[4],rapidly metabolized into choline and glycerophosphate
"C/C=C1\[C@H]2C=C(C)C[C@]1(N)c1ccc(=O)[nH]c1C2 [huperzine A, Huperzine A]",activation of glial cells in an ischemic event,[5],reduced
same,nuclear translocation of transcription factor NFκB,[5],inhibited
same,overexpression of pro-inflammatory mediators in an immune challenge,[5],decreased
same,cell protection,[6],protects cells
